Data as given in US20080207617A1, “Quinoline Derivatives and Quinazoline Derivatives Inhibiting Autophosphrylation of Flt3 and Medicinal Compositions Containing the Same” (KIRIN BEER KABUSHIKI KAISHA, priority 2002, published 2008).

Experiments:
[1] = tested on: MOLM13; assay: Cell growth inhibitory activities on cultured human leukemia cells MOLM-13 (WST-1); format: cell-based; details: 3 days culture
Method: Pharmacological Test Example 4
Cell Growth Inhibitory Activities on Cultured Human Leukemia Cells
(§1) Human leukemia cells MOLM13 (subdivided from Hayashibara Biochemical Laboratories, Inc.) were seeded in an amount of 3×10^3 using a DMEM medium containing 10% fetal calf serum (purchased from GIBCO) in a 96-well flat bottom plate. A solution of a test compound in dimethyl sulfoxide was added to each well and was cultured in a 5% carbon dioxide incubator for 3 days. Three days after the initiation of the culture, 10 μl of a WST-1 solution in Cell Counting Kit (purchased from Wako Pure Chemical Industries, Ltd.) was added to each well for a color reaction. After proper color development, the absorbance was measured with a microplate reader under conditions of measurement wavelength 450 nm and reference wavelength 650 nm. The growth ratio for each well was determined by presuming the absorbance without the addition of the medicament to be 100% growth ratio and the absorbance of the well without seeding of the cells to be 0% growth ratio. The concentration of the test compound was varied on several levels, the cell growth ratio for each case was determined, and the concentration of the test compound necessary for inhibiting 50% of cell growth ratio (IC50) was calculated.

[2] = tested on: MOLM13; assay: Cell growth inhibitory activity using MTT method (MOLM13); format: cell-based, human; details: MOLM13 cells
Method: Pharmacological Test Example 3
Measurement of Cell Growth Inhibitory Activity Using MTT Method
Human leukemia cell line MOLM13 (subdivided from Hayashibara Biochemical Laboratories, Inc.) was cultured in an RPMI medium containing 10% fetal calf serum (purchased from Asahi Techno Glass Corporation) within a 5% carbon dioxide incubator until the cell density reached 50 to 90% of the maximum cell density. These cells were seeded into wells, containing an RPMI medium containing 10% fetal calf serum, in a 96-well flat bottom plate in an amount of […] per well. The amount of the solution of the medium in each well was brought to 100 μl, and a test compound was added thereto to 500 ng, 100 ng, 20 ng, and 4 ng per ml. After culture within an incubator for 72 hr, 10 μl of a 5 mg/ml MTT (3-(4,5-dimethylthiazol-2-yl)-2,5-diphenyl tetrazolium bromide) solution (purchased from SIGMA) was added to the medium, and a reaction was allowed to proceed for 4 hr. Thereafter, 100 μl of a 0.04 N hydrochloric acid-isopropanol solution was added to completely dissolve the resultant MTT formazan crystal. After the dissolution, absorbance at 550 nm was measured using 620 nm as a reference wavelength with a microplate reader (DIGISCAN) (It is regarded that, in the MTT method, the viable cell count is reflected, and linearity is observed in a cell count per well range of 5×10^5 to 2×10^2 cells). After 72 hr, the absorbance of only the medium free from cells was subtracted from the absorbance of the well without the addition of the test compound to determine a value which was presumed to be 100%. On the other hand, the absorbance with the addition of the compound was expressed in terms of % growth.

[3] = tested on: MV4-11; assay: Cell growth inhibitory test MV4-11 (WST-1); format: cell-based, human; details: MV4-11 cells, 3 days culture
Method: Pharmacological Test Example 2
Cell Growth Inhibitory Test
MV4-11 (ATCC number: CRL-9591) as human leukemia cells was seeded in an amount of 3×10^3 using a DMEM medium containing 10% fetal calf serum (purchased from GIBCO) in a 96-well flat bottom plate.
as §1, with “A” for “Human leukemia cells MOLM13 (subdivided from Hayashibara Biochemical Laboratories, Inc.) were seeded in an amount of 3×10^3 using a DMEM medium containing 10% fetal calf serum (purchased from GIBCO) in a 96-well flat bottom plate. A”

| Structure (SMILES) | IC50 ([1]; Homo sapiens, MOLM-13, 72 h) [nM] | IC50 ([2]; Homo sapiens, MOLM-13, 72 h) [nM] | IC50 ([3]; Homo sapiens, MV4-11, 72 h) [nM] | IC50 [1] [nM] | IC50 ([2]; 72 hr) [nM] | IC50 [3] [nM] |
| --- | --- | --- | --- | --- | --- | --- |
| COc1cc2c(Oc3ccc(NC(=O)NCCC(C)(C)C)c(Cl)c3)ccnc2cc1OCCCN1CCCCC1 [Compound 46, 1-{2-Chloro-4-[6-methoxy-7-(3-piperidin-1-yl-propoxy)-quinolin-4-yloxy]-phenyl}-3-(3,3-dimethyl-butyl)-urea] | 123 | 76.8 | 145 |  |  |  |
| COc1cc2c(Oc3ccc(NC(=O)NCCC(C)(C)C)c(F)c3)ccnc2cc1OCCN1CCOCC1 [Compound 67, 1-(3,3-Dimethyl-butyl)-3-{2-fluoro-4-[6-methoxy-7-(2-morpholin-4-yl-ethoxy)-quinolin-4-yloxy]-phenyl}-urea] |  |  |  | 4 | 16.1 | 2 |
| COc1cc2nccc(Oc3ccc(NC(=O)NCCC(C)(C)C)cc3OC)c2cc1OC [Compound 5, 1-[4-(6,7-Dimethoxy-quinolin-4-yloxy)-3-methoxy-phenyl]-3-(3,3-dimethyl-butyl)-urea] | 36 | 93.1 | 23 |  |  |  |
| COc1cc2c(Oc3ccc(NC(=O)NC4CC(C)CC(C)(C)C4)c(F)c3)ccnc2cc1OCCN1CCCCC1 (stereo not drawn) [Compound 57, 1-{2-Fluoro-4-[6-methoxy-7-(2-piperidin-1-yl-ethoxy)-quinolin-4-yloxy]-phenyl}-3-(3,3,5-trimethyl-cyclohexyl)-urea] | 29 | 120 | 19 |  |  |  |
| COc1cc2nccc(Oc3ccc(NC(=O)NCCC4CCCCC4)cc3Cl)c2cc1OC [Compound 17, 1-[3-Chloro-4-(6,7-dimethoxy-quinolin-4-yloxy)-phenyl]-3-(2-cyclohexyl-ethyl)-urea] | 27 | 20.5 | 17 |  |  |  |
| COc1cc2c(Oc3ccc(NC(=O)NCCC(C)(C)C)c(Cl)c3)ccnc2cc1OCCCN1CCCC1 [Compound 45, 1-{2-Chloro-4-[6-methoxy-7-(3-pyrrolidin-1-yl-propoxy)-quinolin-4-yloxy]-phenyl}-3-(3,3-dimethyl-butyl)-urea] | 140 | 255 | 118 |  |  |  |
| COc1cc2c(Oc3ccc(NC(=O)NC4CC(C)CC(C)(C)C4)cc3F)ccnc2cc1OCCN1CCCCC1 (stereo not drawn) [Compound 56, 1-{3-Fluoro-4-[6-methoxy-7-(2-piperidin-1-yl-ethoxy)-quinolin-4-yloxy]-phenyl}-3-(3,3,5-trimethyl-cyclohexyl)-urea] | 26 | 11.3 | 14 |  |  |  |
| COc1cc2c(Oc3ccc(NC(=O)NCCC(C)(C)C)c(F)c3)ccnc2cc1OCCN1C(C)CCCC1C (stereo not drawn) [Compound 60, 1-(3,3-Dimethyl-butyl)-3-(4-{7-[2-(2,6-dimethyl-piperidin-1-yl)-ethoxy]-6-methoxy-quinolin-4-yloxy}-2-fluoro-phenyl)-urea] | 59 | 108 | 33 |  |  |  |
| COc1cc2c(Oc3ccc(NC(=O)NC4CCCC(C)(C)C4)cc3F)ccnc2cc1OCCN1CCCCC1 (stereo not drawn) [Compound 55, 1-(3,3-Dimethyl-cyclohexyl)-3-{3-fluoro-4-[6-methoxy-7-(2-piperidin-1-yl-ethoxy)-quinolin-4-yloxy]-phenyl}-urea] | 25 | 36.8 | 6 |  |  |  |
| COc1cc2c(Oc3ccc(NC(=O)NCCC(C)(C)CO)c(F)c3)ccnc2cc1OCCN1CCCCC1 [Compound 63, 1-{2-Fluoro-4-[6-methoxy-7-(2-piperidin-1-yl-ethoxy)-quinolin-4-yloxy]-phenyl}-3-(4-hydroxy-3,3-dimethyl-butyl)-urea] | 22 | 47.8 | 10 |  |  |  |
| COc1cc2c(Oc3ccc(NC(=O)NCCC4CCCCC4)c(F)c3)ccnc2cc1OCCN1CCCCC1 [Compound 64, 1-(2-Cyclohexyl-ethyl)-3-{2-fluoro-4-[6-methoxy-7-(2-piperidin-1-yl-ethoxy)-quinolin-4-yloxy]-phenyl}-urea] | 19 | 195 | 13 |  |  |  |

The remaining molecules from weak to strong by IC50 ([1]; Homo sapiens, MOLM-13, 72 h), led by results:

| IC50 ([1]; Homo sapiens, MOLM-13, 72 h) [nM] | IC50 ([2]; Homo sapiens, MOLM-13, 72 h) [nM] | IC50 ([3]; Homo sapiens, MV4-11, 72 h) [nM] | IC50 [1] [nM] | IC50 ([2]; 72 hr) [nM] | IC50 [3] [nM] | Structure (SMILES) |
| --- | --- | --- | --- | --- | --- | --- |
| 18 | 31.3 | 12 |  |  |  | COc1cc2nccc(Oc3ccc(NC(=O)NC4CCCCC4)cc3)c2cc1OC [Compound 26, 1-Cyclohexyl-3-[4-(6,7-dimethoxy-quinolin-4-yloxy)-phenyl]-urea] |
| 17 | 51.6 | 4 |  |  |  | COc1cc2c(Oc3ccc(NC(=O)NCCC4CCCCC4)cc3F)ccnc2cc1OCCN1CCCCC1 [Compound 58, 1-(2-Cyclohexyl-ethyl)-3-{3-fluoro-4-[6-methoxy-7-(2-piperidin-1-yl-ethoxy)-quinolin-4-yloxy]-phenyl}-urea] |
| 13 | 16.7 | 4 |  |  |  | COc1cc2c(Oc3ccc(NC(=O)NCCC(C)(C)C)cc3)ccnc2cc1OCCN1CC(C)CC(C)C1 (stereo not drawn) [Compound 53, 1-(3,3-Dimethyl-butyl)-3-(4-{7-[2-(3,5-dimethyl-piperidin-1-yl)-ethoxy]-6-methoxy-quinolin-4-yloxy}-phenyl)-urea] |
| 9 | 24.6 | 4 |  |  |  | COc1cc2c(Oc3ccc(NC(=O)NCCC4CCCC4)c(F)c3)ccnc2cc1OCCN1CCCCC1 [Compound 65, 1-(2-Cyclopentyl-ethyl)-3-{2-fluoro-4-[6-methoxy-7-(2-piperidin-1-yl-ethoxy)-quinolin-4-yloxy]-phenyl}-urea] |
| 8 | 17.7 | 2 |  |  |  | COc1cc2c(Oc3ccc(NC(=O)NC4CCCC(C)(C)C4)c(F)c3)ccnc2cc1OCCN1CCOCC1 (stereo not drawn) [Compound 69, 1-(3,3-Dimethyl-cyclohexyl)-3-{2-fluoro-4-[6-methoxy-7-(2-morpholin-4-yl-ethoxy)-quinolin-4-yloxy]-phenyl}-urea] |
| 7 | 26.5 | 4 |  |  |  | COc1cc2c(Oc3ccc(NC(=O)NCCC(C)(C)C)cc3F)ccnc2cc1OCCN1C(C)CCCC1C (stereo not drawn) [Compound 62, 1-(3,3-Dimethyl-butyl)-3-(4-{7-[2-(2,6-dimethyl-piperidin-1-yl)-ethoxy]-6-methoxy-quinolin-4-yloxy}-3-fluoro-phenyl)-urea] |
| 3 | 29.6 | 2 |  |  |  | COc1cc2c(Oc3ccc(NC(=O)NCCC(C)(C)C)cc3Cl)ccnc2cc1OCCN1CC(C)OC(C)C1 (stereo not drawn) [Compound 70, 1-(3-Chloro-4-{7-[2-(2,6-dimethyl-morpholin-4-yl)-ethoxy]-6-methoxy-quinolin-4-yloxy}-phenyl)-3-(3,3-dimethyl-butyl)-urea] |
| 2 | 40.3 | 1 |  |  |  | COc1cc2nccc(Oc3ccc(NC(=O)NCCC4CCCC4)cc3F)c2cc1OC [Compound 18, 1-(2-Cyclopentyl-ethyl)-3-[4-(6,7-dimethoxy-quinolin-4-yloxy)-3-fluoro-phenyl]-urea] |
| 1 | 13.3 | < 1 |  |  |  | COc1cc2nccc(Oc3ccc(NC(=O)NCCC(C)(C)C)cc3)c2cc1OCCN1CCOCC1 [Compound 68, 1-(3,3-Dimethyl-butyl)-3-{4-[7-methoxy-6-(2-morpholin-4-yl-ethoxy)-quinolin-4-yloxy]-phenyl}-urea] |
